The values that follow come from ChEMBL document CHEMBL5649166, “RIP3 induces apoptosis independent of pronecrotic kinase activity” (Mol Cell, 2014).

SMILES strings stand for the structures.

Assay [1] has as its target T1, Calcium/calmodulin-dependent protein kinase type IV (Homo sapiens) (UniProt Q16566).
T1 sequence (whole entry): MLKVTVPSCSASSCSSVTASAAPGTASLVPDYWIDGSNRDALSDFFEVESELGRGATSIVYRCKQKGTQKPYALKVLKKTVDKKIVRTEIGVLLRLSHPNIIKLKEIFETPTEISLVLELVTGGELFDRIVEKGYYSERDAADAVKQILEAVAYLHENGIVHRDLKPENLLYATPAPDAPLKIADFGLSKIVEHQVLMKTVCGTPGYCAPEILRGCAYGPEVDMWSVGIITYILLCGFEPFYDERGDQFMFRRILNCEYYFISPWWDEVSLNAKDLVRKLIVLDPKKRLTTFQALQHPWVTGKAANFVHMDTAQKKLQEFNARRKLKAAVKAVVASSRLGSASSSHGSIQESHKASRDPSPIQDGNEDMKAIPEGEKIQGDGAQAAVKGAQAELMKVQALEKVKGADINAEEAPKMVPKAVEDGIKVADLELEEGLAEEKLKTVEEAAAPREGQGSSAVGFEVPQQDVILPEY
Nature of the assay: Residual activity of human CAMK4 using KKLNRTLSFAEPG as substrate at 1 uM in presence of 32P-ATP by Hotspot assay relative to control.

The target in assay [2] is Calcium/calmodulin-dependent protein kinase type 1D (Homo sapiens) (UniProt Q8IU85). Nature of the assay: Inhibition of human CAMK1d using KKALRRQETVDAL as substrate at 1 uM in presence of 32P-ATP by Hotspot assay relative to control; values are per cent of control.
In assay [3] the target is Protein kinase C alpha type (Homo sapiens) (UniProt P17252). Nature of the assay: Inhibition of human PKCa using ERMRPRKRQGSVRRRV as substrate at 1 uM in presence of 32P-ATP by Hotspot assay relative to control; values are per cent of control.
Assay [4] has as its target Dual specificity protein kinase CLK2 (Homo sapiens) (UniProt P49760). Nature of the assay: Inhibition of human CLK2 using myelin basic protein as substrate at 1 uM in presence of 32P-ATP by Hotspot assay relative to control; values are per cent of control.
Assay [5] addresses Fibroblast growth factor receptor 2 (Homo sapiens) (UniProt P21802). Nature of the assay: Inhibition of human FGFR2 using poly[Glu:Tyr] (4:1) as substrate at 1 uM in presence of 32P-ATP by Hotspot assay relative to control; values are per cent of control.
For assay [6], the target named is MAP kinase-interacting serine/threonine-protein kinase 2 (Homo sapiens) (UniProt Q9HBH9). Nature of the assay: Inhibition of human MNK2 using myelin basic protein as substrate at 1 uM in presence of 32P-ATP by Hotspot assay relative to control; values are per cent of control.
Chain of MAP kinase-interacting serine/threonine-protein kinase 2 (Homo sapiens) (Q9HBH9 whole entry, looked up): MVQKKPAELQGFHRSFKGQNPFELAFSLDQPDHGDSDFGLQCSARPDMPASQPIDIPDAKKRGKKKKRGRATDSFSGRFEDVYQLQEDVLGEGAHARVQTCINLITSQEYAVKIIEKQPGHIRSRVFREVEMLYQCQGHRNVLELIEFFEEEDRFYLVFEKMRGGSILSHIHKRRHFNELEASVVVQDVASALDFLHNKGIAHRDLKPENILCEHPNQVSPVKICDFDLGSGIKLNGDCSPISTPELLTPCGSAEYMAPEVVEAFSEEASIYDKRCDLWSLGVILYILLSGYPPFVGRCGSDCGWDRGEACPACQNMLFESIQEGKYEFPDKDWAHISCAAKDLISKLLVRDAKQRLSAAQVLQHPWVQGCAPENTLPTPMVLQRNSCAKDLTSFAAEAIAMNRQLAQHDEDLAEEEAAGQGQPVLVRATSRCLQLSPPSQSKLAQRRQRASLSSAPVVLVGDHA
Assay [7] has as its target Homeodomain-interacting protein kinase 3 (Homo sapiens) (UniProt Q9H422). Nature of the assay: Inhibition of human HIPK3 using myelin basic protein as substrate at 1 uM in presence of 32P-ATP by Hotspot assay relative to control; values are per cent of control.
In assay [8] the target is Receptor tyrosine-protein kinase erbB-2 (Homo sapiens) (UniProt P04626). Nature of the assay: Inhibition of human ERBB2/HER2 using poly[Glu:Tyr] (4:1) as substrate at 1 uM in presence of 32P-ATP by Hotspot assay relative to control; values are per cent of control.
Chain of Receptor tyrosine-protein kinase erbB-2 (Homo sapiens) (P04626 whole entry): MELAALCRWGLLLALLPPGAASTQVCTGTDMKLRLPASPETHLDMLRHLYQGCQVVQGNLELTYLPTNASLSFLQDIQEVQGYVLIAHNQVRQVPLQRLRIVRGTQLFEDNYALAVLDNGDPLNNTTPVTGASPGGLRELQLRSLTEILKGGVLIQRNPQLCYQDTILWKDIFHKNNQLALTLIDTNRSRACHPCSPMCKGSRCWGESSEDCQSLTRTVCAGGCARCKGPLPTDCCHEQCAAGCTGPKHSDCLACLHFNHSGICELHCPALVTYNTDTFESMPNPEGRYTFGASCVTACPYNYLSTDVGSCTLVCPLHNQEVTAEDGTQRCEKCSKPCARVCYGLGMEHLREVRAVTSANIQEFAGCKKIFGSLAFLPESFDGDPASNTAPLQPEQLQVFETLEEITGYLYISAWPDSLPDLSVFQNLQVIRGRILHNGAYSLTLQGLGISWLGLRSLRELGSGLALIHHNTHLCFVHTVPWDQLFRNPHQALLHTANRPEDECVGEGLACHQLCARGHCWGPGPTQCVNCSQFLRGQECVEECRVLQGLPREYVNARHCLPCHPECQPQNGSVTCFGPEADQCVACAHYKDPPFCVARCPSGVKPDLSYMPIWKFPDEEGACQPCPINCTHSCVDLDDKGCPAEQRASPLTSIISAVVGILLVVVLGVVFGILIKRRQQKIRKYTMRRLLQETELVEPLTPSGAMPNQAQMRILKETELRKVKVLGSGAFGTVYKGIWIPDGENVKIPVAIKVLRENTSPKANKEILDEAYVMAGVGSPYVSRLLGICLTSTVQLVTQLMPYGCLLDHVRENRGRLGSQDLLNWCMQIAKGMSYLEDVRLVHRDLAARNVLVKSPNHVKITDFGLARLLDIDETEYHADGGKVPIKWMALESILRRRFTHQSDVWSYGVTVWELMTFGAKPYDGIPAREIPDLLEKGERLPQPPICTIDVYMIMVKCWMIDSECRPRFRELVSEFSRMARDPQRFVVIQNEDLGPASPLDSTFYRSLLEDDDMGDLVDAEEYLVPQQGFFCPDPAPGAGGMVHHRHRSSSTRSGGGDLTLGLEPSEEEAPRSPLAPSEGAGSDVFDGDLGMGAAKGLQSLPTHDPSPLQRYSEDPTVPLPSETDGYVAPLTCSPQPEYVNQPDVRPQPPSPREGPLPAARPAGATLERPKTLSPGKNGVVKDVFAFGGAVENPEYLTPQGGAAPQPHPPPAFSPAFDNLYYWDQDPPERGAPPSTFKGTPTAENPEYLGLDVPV
Assay [9] has as its target T2, NUAK family SNF1-like kinase 1 (Homo sapiens) (UniProt O60285).
T2 sequence (whole entry): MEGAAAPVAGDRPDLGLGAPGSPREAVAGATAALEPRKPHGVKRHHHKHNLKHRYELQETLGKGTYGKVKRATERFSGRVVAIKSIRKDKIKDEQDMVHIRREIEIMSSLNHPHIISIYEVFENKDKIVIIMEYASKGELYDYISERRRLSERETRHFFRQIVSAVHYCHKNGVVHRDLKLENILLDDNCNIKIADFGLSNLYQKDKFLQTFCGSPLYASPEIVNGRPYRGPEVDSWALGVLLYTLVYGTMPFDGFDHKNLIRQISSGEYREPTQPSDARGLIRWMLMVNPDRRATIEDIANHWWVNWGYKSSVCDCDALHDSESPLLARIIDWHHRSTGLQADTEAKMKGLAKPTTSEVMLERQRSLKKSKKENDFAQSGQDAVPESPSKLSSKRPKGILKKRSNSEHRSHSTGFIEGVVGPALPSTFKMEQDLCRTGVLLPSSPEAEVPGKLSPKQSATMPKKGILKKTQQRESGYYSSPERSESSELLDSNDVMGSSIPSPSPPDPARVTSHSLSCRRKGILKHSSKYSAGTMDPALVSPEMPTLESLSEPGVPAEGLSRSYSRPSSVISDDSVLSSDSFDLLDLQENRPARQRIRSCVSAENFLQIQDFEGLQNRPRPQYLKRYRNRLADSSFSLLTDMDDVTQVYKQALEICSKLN
Nature of the assay: Inhibition of human ARK5/NUAK1 using KKKVSRSGLYRSPSMPENLNRPR as substrate at 1 uM in presence of 32P-ATP by Hotspot assay relative to control; values are per cent of control.

Assay [10] deals with T3, NUAK family SNF1-like kinase 2 (Homo sapiens) (UniProt Q9H093).
T3 sequence (whole entry): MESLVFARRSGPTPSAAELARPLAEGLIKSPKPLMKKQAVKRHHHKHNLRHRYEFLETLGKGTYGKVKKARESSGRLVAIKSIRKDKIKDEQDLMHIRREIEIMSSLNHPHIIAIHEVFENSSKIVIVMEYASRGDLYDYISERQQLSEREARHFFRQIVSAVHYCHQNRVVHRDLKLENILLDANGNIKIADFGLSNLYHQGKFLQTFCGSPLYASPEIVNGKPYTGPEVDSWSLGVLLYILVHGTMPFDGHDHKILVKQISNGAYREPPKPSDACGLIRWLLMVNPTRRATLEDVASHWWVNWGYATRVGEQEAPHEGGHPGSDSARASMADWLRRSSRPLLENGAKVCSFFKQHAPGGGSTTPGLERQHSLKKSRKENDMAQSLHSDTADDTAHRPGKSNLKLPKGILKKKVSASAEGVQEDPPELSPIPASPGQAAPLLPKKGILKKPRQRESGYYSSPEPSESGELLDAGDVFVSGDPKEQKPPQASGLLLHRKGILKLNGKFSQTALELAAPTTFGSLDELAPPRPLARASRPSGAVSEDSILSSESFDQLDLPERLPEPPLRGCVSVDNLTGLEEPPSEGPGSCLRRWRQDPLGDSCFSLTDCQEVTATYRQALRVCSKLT
Nature of the assay: Inhibition of human SNARK/NUAK2 using KKKVSRSGLYRSPSMPENLNRPR as substrate at 1 uM in presence of 32P-ATP by Hotspot assay relative to control; values are per cent of control.

Chain of Dual specificity protein kinase CLK2 (Homo sapiens) (P49760 whole entry, looked up): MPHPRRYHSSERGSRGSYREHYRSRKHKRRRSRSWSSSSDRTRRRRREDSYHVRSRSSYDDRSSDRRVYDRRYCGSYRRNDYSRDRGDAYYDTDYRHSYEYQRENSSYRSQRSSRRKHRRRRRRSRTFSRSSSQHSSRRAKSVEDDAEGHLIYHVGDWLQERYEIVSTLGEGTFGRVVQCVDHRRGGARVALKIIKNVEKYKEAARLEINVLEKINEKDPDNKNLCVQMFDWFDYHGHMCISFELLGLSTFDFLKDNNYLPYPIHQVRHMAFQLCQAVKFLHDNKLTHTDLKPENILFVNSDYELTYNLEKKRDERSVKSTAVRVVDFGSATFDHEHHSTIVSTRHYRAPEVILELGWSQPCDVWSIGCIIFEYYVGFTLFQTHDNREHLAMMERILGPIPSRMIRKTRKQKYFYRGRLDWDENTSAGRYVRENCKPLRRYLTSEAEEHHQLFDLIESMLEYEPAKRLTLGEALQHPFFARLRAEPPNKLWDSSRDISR
Chain of Homeodomain-interacting protein kinase 3 (Homo sapiens) (Q9H422 whole entry, looked up): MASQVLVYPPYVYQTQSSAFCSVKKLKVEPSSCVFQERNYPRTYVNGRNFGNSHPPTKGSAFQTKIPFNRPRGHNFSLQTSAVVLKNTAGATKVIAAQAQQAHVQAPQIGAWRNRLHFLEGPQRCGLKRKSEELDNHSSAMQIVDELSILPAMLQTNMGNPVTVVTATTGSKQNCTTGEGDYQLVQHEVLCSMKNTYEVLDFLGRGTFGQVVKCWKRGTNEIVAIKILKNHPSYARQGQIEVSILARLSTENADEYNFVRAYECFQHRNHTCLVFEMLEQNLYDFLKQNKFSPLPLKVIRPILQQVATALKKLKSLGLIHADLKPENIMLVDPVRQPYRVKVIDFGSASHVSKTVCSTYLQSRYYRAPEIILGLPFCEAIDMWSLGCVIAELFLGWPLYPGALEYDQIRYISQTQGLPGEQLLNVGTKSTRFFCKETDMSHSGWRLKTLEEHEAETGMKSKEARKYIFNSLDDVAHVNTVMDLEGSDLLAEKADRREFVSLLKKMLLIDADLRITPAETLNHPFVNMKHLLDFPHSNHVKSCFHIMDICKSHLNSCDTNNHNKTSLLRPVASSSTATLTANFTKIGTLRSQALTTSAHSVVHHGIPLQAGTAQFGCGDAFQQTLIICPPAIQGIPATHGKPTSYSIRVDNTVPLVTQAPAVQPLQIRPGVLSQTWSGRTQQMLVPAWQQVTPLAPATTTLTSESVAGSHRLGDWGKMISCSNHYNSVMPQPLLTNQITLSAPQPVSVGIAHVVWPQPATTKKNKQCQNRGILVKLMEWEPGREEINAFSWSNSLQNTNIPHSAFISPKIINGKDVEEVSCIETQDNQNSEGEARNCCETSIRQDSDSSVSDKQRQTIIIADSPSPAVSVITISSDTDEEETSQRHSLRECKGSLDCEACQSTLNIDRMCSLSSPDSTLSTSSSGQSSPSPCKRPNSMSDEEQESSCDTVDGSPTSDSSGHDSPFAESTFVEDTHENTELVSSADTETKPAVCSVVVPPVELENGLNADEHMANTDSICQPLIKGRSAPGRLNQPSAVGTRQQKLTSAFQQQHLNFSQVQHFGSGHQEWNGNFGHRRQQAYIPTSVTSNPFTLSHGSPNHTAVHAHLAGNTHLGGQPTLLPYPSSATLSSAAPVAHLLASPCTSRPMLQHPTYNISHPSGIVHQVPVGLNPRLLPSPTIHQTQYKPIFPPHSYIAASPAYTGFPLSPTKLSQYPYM
Chain of Fibroblast growth factor receptor 2 (Homo sapiens) (P21802 22-821 limits assumed): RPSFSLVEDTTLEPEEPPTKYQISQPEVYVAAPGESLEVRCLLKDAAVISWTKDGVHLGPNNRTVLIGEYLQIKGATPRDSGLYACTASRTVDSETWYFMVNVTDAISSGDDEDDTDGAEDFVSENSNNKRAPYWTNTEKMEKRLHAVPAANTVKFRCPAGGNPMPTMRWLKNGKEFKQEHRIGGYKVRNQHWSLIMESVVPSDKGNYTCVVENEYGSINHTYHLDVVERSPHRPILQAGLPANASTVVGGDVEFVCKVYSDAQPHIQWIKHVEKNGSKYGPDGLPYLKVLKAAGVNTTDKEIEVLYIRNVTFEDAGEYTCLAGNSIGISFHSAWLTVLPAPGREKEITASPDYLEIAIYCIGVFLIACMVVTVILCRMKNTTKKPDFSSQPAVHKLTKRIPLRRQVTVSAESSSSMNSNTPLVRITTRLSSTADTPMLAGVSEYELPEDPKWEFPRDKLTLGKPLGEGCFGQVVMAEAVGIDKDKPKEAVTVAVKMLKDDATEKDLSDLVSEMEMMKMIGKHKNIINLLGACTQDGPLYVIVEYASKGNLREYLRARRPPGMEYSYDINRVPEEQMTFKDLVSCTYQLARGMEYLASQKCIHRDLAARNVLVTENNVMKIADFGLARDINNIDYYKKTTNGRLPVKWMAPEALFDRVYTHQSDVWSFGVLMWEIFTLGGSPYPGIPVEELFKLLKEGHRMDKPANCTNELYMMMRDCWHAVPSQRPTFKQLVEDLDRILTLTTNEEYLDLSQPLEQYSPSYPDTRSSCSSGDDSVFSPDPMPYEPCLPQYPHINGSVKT

With `CNC(=O)c1ccc2c(c1)ncn2-c1ccc(CC(=O)OC(C)(C)C)cc1`, the residual activity in assay [1] turned out to be 91.8%; in assay [2], 99.1%; in assay [3], 107%; in [4], 93.7%; in [5] it was 66.7%; in assay [6], 70.6%. Further, the residual activity came out at 102% in [7], 100% in assay [8], 91.7% in assay [9] and 89.7% in [10].

With `Cc1cc(-c2cnc(N)c3c(-c4ccc5scnc5c4)csc23)n(C)n1`, the residual activity came to 88.6% in [1]; 97.8% in assay [2]; 80.8% in assay [3]; 101% in assay [4]; 61.7% in assay [5]; 97.9% in assay [6]. For the same compound, the residual activity came out at 101% in [7], 92.3% in assay [8], 98.5% in assay [9] and 95.9% in assay [10].

Regarding `CC(C)S(=O)(=O)c1ccc2nccc(Nc3ccc4scnc4c3)c2c1`, the residual activity worked out at 91% in [1]; 99% in [2]; 80.2% in [3]; 97.1% in assay [4]; 73.7% in [5]; 96% in [6]. Moreover, the residual activity in assay [7] amounted to 104%; in [8], 85%; in assay [9] it was 98.4%; in assay [10] it was 108%.

Usually residual activity stands for the signal under treatment as a percentage of the control signal.
